Read-outs that look alike come from different tables or passages of the source.
Tests used:
[1] = in vivo; details: male, Syrian golden, hamster, po, 500 mg/kg
[2] = male, Syrian golden, hamster, in vivo, po, 500 mg/kg
[3] = male, Syrian golden, hamster, in vivo, po, 500 mg/kg; remark: listed apart in the source
[4] = in vivo; details: male, Syrian golden, hamster, po, 500 mg/kg; remark: listed apart in the source
[5] = cited from earlier work
[6] = cited from earlier work; remark: listed apart in the source
[7] = test system: HCV clinical isolates; details: cited from earlier work
[8] = test system: Yellow fever virus (YFV); details: read-out: EC90 in reducing viral yield; cited from earlier work
[9] = test system: Yellow fever virus (YFV); details: read-out: EC50, 50% inhibition of the virus-induced cytopathic effect (CPE); cited from earlier work

Row | SMILES | MRT last ([1]; MRT0-last) | Tmax [1] | Concentration measured in brain tissue [2] | Plasma concentration at 12 h post dose (Ctrough) [3] | Tmax [2] | AUC(0-t) [4] | Cmax [4] | MRT last [4] | Tmax [4] | other results
1 | C[C@@]1(F)[C@H](O)[C@@H](COP(=O)(O)OP(=O)(O)OP(=O)(O)O)O[C@H]1n1cnc2c(=O)[nH]c(N)nc21 [AT-9010] | 11 h | 8 h | no AT-9010 detected |  |  |  |  |  |  | MRT last ([1]; Mean residence times (MRT0-last) across tissues): 7 to 11 h
2 | C[C@@]1(F)[C@H](O)[C@@H](CO)O[C@H]1n1cnc2c(=O)[nH]c(N)nc21 [AT-273] | 11.6 h |  |  | 600 ± 100 nM | 8.0 h | 10.8 ± 1.6 µM·h | 900 ± 100 nM | 9.8 ± 1.1 h | 5.7 ± 4 h | 
3 | CNc1nc(N)nc2c1ncn2C1OC(COP(=O)(NC(C)C(=O)OC(C)C)Oc2ccccc2)C(O)C1(C)F (stereo not drawn) [AT-752] |  |  |  |  |  |  |  |  |  | Half-life in rodent plasma [5]: < 3 min; Half-life in primate plasma [6]: > 4.67 h; Alive/total (21 days): 5/5; ALT (hamster, in vivo): 53 ± 5 IU/L; Toxicity, as evidenced by weight loss or mortality (hamster, in vivo, 1000 mg/kg): no toxicity
4 | CNc1nc(N)nc2c1ncn2C1OC(COP(=O)(O)NC(C)C(=O)O)C(O)C1(C)F (stereo not drawn) [AT-551] | 8.5 h |  |  | 3400 ± 1700 nM | 2.0 h | 114 ± 22.1 µM·h | 52400 ± 23500 nM | 4.6 ± 1.5 h | 0.5 h | 
5 | CNc1nc(N)nc2c1ncn2[C@@H]1O[C@H](COP(=O)(N[C@@H](C)C(=O)OC(C)C)Oc2ccccc2)[C@@H](O)[C@@]1(C)F.CNc1nc(N)nc2c1ncn2[C@@H]1O[C@H](COP(=O)(N[C@@H](C)C(=O)OC(C)C)Oc2ccccc2)[C@@H](O)[C@@]1(C)F.O=S(=O)(O)O (stereo partly drawn) [AT-527] |  |  |  |  |  |  |  |  |  | Fold more potent than sofosbuvir [7]: up to 58 fold
6 | CNc1nc(N)nc2c1ncn2C1OC(COP(=O)(NC(C)C(=O)OC(C)C)Oc2ccccc2)C(O)C1(C)F (stereo not drawn) [AT-281] | 4.2 h | 2 h | no AT-281 was detected | 6 ± 2 nM |  | 1.7 ± 0.5 µM·h | 600 ± 200 nM | 3.4 ± 1 h | 2 ± 1.7 h | EC90 [8]: 260 nM; EC50 [9]: 310 nM; Concentration measured in lung tissue [2]: no AT-281 was detected; MRT0-last [2]: 4.5 h

Source: publication PMC8812913 (PLoS Neglected Tropical Diseases, 2022)
